Assays:
[1] = system: advanced solid tumors; parameters: method as in PMID 24456794, PMID 24440085; details: cited from earlier work
[2] = system: MDA-MB-231 cells; experiment: Soft agar anchorage-independent growth assay; format: cell-based, human; details: MDA-MB-231, soft agar, 3% WF, 10 or 20μM, three weeks
Description: Vinculin was used as loading control. (B) Same as in (A) but the analysis was focused on STAT3 and Src signaling pathways. Actin was used as loading control. […] Two weeks later plates were stained with crystal violet and colonies photographed (C) and counted (D). […] After three weeks, colonies were photographed (E) and counted (F). Values reported in (D) and (F) represent the mean (± S.D.) of two independent experiments performed in duplicate. * p<0.05; ** p<0.01; *** p<0.001.
Both number and size of the colonies were affected, signifying that, in this context, activity of p70S6K was necessary for both survival and proliferation of breast cancer cells (Fig. 2E and F).
The experiments were performed in six-well tissue culture plates, in triplicate. Fresh medium was added to the wells twice a week as a feeder layer. After three weeks, the number of colonies was counted at 4X magnification.

[3] = system: breast cancer local relapse; parameters: method as in PMID 23899505, PMID 24661902, PMID 18316551; details: mouse model of breast cancer ref 9,10,24; cited from earlier work

Row | Structure (SMILES) | clinical benefit ([1]; alone or in combination with erlotinib or everolimus, phase I trials ref 11,12) | tolerability ([1]; particularly when administered with erlotinib ref 11,12) | ability to survive and grow in anchorage independence [2] | breast cancer local relapse [3]
1 | Cc1ccc(S(=O)(=O)O)cc1.Cn1cc(-c2ccc(F)c(C(F)(F)F)c2)nc1C1CCN(c2ncnc3[nH]ncc23)CC1 [LY2584702 tosylate] | very limited clinical benefit | low tolerability | – | –
2 | CCc1cncnc1N1CCN(Cc2nc3ccc(C(F)(F)F)cc3[nH]2)CC1 [PF-4708671] | – | – | significantly decreased | strongly impaired

— PMC4931847, “Preclinical validation of a novel compound targeting p70S6 kinase in breast cancer” (Aging (Albany NY), 2016)
